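Growth conditions: 96-well plates. Treatment: test compound, 48 hours, 5 concentrations. Analysis: linear interpolation between bracketing concentrations; unreached endpoints set to highest concentration. GI50 marks 50% less growth.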 Calls of active or inactive are those of the source. Rule as the data show it: active = GI50 up to about 1.1 µM and inactive = higher.
Assays:
Assay in all cases: NCI-60 cell line screen, 48 h
NCI-H522 = system: NCI-H522
LOX IMVI = system: LOX IMVI
SF-295 = system: SF-295
SNB-75 = system: SNB-75
OVCAR-5 = system: OVCAR-5
HOP-92 = system: HOP-92
HCT-15 = system: HCT-15
SW-620 = system: SW-620
T47D = system: T47D
UO-31 = system: UO-31
IGROV-1 = system: IGROV-1
HCC 2998 = system: HCC 2998
HT-29 = system: HT-29
EKVX = system: EKVX
KM12 = system: KM12
SR = system: SR
A549 = system: A549
HL-60 = system: HL-60
SF-268 = system: SF-268
SK-MEL-28 = system: SK-MEL-28

Row | Compound | GI50 (NCI-H522) | GI50 (LOX IMVI) | GI50 (SF-295) | GI50 (SNB-75) | GI50 (OVCAR-5) | GI50 (HOP-92) | GI50 (HCT-15) [µM] | GI50 (SW-620) | GI50 (T47D) | GI50 (UO-31) | GI50 (IGROV-1) | GI50 (HCC 2998) | GI50 (HT-29) | GI50 (EKVX) | GI50 (KM12) | GI50 (SR) | GI50 (A549) | GI50 (HL-60) | GI50 (SF-268) | GI50 (SK-MEL-28)
1 | O=c1c(Sc2c(SCSc3cnc4ccccc4c3Sc3c[nH]c4ccccc4c3=O)cnc3ccccc23)c[nH]c2ccccc12 | > 100 µM (inactive) | > 100 µM (inactive) | > 100 µM (inactive) | > 100 µM (inactive) | > 100 µM (inactive) | 34 µM (inactive) | 96.8 | 44.7 µM (inactive) | > 100 µM (inactive) | > 100 µM (inactive) | 88.9 µM (inactive) | > 100 µM (inactive) | > 100 µM (inactive) | > 100 µM (inactive) | > 100 µM (inactive) | 0.877 µM (active) | > 10 µM (inactive) | 0.54 µM (active) | 92.3 µM (inactive) | 22.9 µM (inactive)
2 | CC(Oc1ccc(Cl)cc1Cl)C(=O)NN1C(=O)CSC1c1ccccc1 (stereo not given) | 56.2 µM (inactive) | 69 µM (inactive) | 60 µM (inactive) | 34.7 µM (inactive) | > 100 µM (inactive) | 27.7 µM (inactive) | > 100 | > 100 µM (inactive) | 56.8 µM (inactive) | > 100 µM (inactive) | 54 µM (inactive) | > 100 µM (inactive) | > 100 µM (inactive) | 90.2 µM (inactive) | 64 µM (inactive) | 3.89 µM (inactive) | 39.3 µM (inactive) | 27.3 µM (inactive) | 60.5 µM (inactive) | 50.5 µM (inactive)
3 | Clc1cc2ncn(C3CCCO3)c2cc1Cl (stereo not given) | 24.5 µM (inactive) | 54.2 µM (inactive) | > 100 µM (inactive) | 26.4 µM (inactive) | > 100 µM (inactive) | 98.9 µM (inactive) | > 100 | 98.2 µM (inactive) | 66.2 µM (inactive) | 17.7 µM (inactive) | 17.3 µM (inactive) | 62.8 µM (inactive) | 68.4 µM (inactive) | 27.5 µM (inactive) | 28.9 µM (inactive) | 48.3 µM (inactive) | 75.9 µM (inactive) | 78.9 µM (inactive) | 99.3 µM (inactive) | > 100 µM (inactive)
4 | O=C(CN1CCCC1)Nc1ccc2sc3ccccc3c(=O)c2n1 | 11.2 µM (inactive) | 11 µM (inactive) | 22.6 µM (inactive) | 19.7 µM (inactive) | 24.4 µM (inactive) | 27.3 µM (inactive) | 23.2 | 4.97 µM (inactive) | 30.1 µM (inactive) | 14.2 µM (inactive) | 23.2 µM (inactive) | 13.9 µM (inactive) | 34 µM (inactive) | 32.7 µM (inactive) | 19.5 µM (inactive) | 24.9 µM (inactive) | 16.6 µM (inactive) | > 10 µM (inactive) | 24.7 µM (inactive) | 19.3 µM (inactive)

— ChEMBL document CHEMBL1201862, “PubChem BioAssay data set” (2004)
